# Legend:
# [1] = target: T1, human recombinant EP4 receptor (HEK-293 cells) (Homo sapiens, UniProt P35408); test: AlphaScreen cAMP assay, EP4 receptor; type: cell-based; conditions: read-out: EC50 for increased cAMP production
# T1 construct: expressed in transfected cells
# Protocol: (§1) cAMP assay was carried out using AlphaScreen cAMP assay kits (PerkinElmer, Boston, Mass.) following manufacturer instructions. Intracellular Ca^2+ was monitored using a FLIPR Tetra system and assay kits from Molecular Devices following manufacturer instructions. All assays were carried out in HEK-293 cells heterologously and stably expressing each of the eight human recombinant prostanoid receptors. For Ca^2+ signals, hEP2, hEP4, hDP were co-expressed with a chimeric G protein, Gqs, which converts Gs signal to Gq Ca^2+ signal, and hEP3 with a chimeric G protein, Gqi. Each receptor-selective agonist induced Ca^2+ signals with sub-nanomolar or nanomolar EC50 values. Subtype-selective compounds used here are PGE2 for EP1, EP2, EP3 and EP4; BW245C for DP; 17-phenyl PGF2α for FP, carbacyclin for IP and U-46619 for TP.
# (§2) Human Recombinant EP1, EP2, EP3, EP4, FP, TP, IP and DP Receptors: Stable Transfectants
# (§3) Plasmids encoding the human EP1, EP2, EP3, EP4, FP, TP, IP and DP receptors are prepared by cloning the respective coding sequences into the eukaryotic expression vector pCEP4 (Invitrogen). […] Selection of stable transfectants is achieved with 200 μg ml^−1 hygromycin, the optimal concentration being determined by previous hygromycin kill curve studies. […]
# [2] = tested on: incisional skin wounds; test: Incisional skin wound study, 14 day pilot, topical treatment; type: in vivo, Sprague-Dawley rats
# Protocol: Sprague-Dawley rats weighing 180-200 grams were anesthetized with isoflourane. After shaving, a 2-cm long incision was made, reaching the deep fascia on the back skin of rats under sterile conditions. The wounds were immediately closed with 4-0 sutures. A 14 day pilot study was carried out. The animals were topically treated with vehicle or Compound 1 at 0.004% twice daily. The vehicle contained ethanol 30%, propylene glycol 12%, dipropylene glycol 5%, benzyl alcohol 5%, glycerol 3% and normal saline 45%. The wound was photographed daily; biopsy was performed at 2, 3, 7 and 14 days post-surgery for histopathology and molecular biology analysis.
# (§4) The wound tissue was biopsied for histopathology on day 3, 14 and 70. To observe the skin wound, paraffin-embedded wound sections were made. Regular H&E staining was carried out in comparison with Masson trichrome and/or Picosirus red to visualize the collagen fibers. To monitor myofibroblasts in skin wound, the sections were immunohistochemically stained to identify alpha-smooth muscle actin. To assess wound appearance, all the scar photos were mixed together by the end of each study. The scar severity was scored on a scale of 0 to 10, with 0 being invisible, 1 the minimal and 10 the worst. Each scar was divided into 4 regions, separated by suture sites; each quarter was scored independently; the mean of the 4 part scores was recorded as the gross score of each wound.
# [3] = tested on: bFGF; test: bFGF expression at wound sites (Western blot); type: in vivo, Sprague Dawley rats; conditions: wound tissue, day-7 and day-14
# Protocol: (§5) 2 cm long incisional full thickness skin wounds were made on the back of Sprague Dawley rats. Wounds were treated with vehicle or EP4 agonist (compound I). The wound tissue was biopsied at day-7 or day-14 post-surgery. The samples were homogenized in protein extraction buffer after being frozen in liquid nitrogen. The protein concentrations were measured. Then the samples were loaded into 4-10% SDS-Pages to resolve the proteins. After electrophoresis, the proteins were transferred onto nitrocellular membranes. The membranes were blocked with anti-VEGF, anti-bFGF or anti-beta-actin, respectively. […] It is reported that bFGF prevents scar formation and reduces hypertrophic and burn-induced skin scars. VEGF expression was boosted by 25% transiently at day-7, which may contribute to angiogenesis at wound site and facilitate scar-free healing.
# [4] = tested on: incisional skin wounds; test: Incisional skin wound study comparing Compound I and TGF-β3; type: in vivo, rats; conditions: for number of neutrophils counted in three sections: 3 days post-surgery, H&E, n=5, vehicle 60.6±30; for macroscopic surface appearance of wound sites / abnormal regions of dense, red, fine parallel fibers in wound gaps: 70 days post-surgery; for abnormal regions of dense, red, fine parallel fibers in wound gaps: Picrosirius red; for widths of the abnormal structured dermis regions versus vehicle: day 14, Masson trichrome; for gap width in-between the normal fibrils versus vehicle / collagen fibrils at wound sites under polarized light: day 14, Picrosirius red; for gap width in-between the normal fibrils versus vehicle: p<0.05; for collagen fibrils at wound sites under polarized light: yellow type I, green type III collagen
# Protocol: A similar skin wound study was also performed comparing the effects of Compound I and TGF-β3. In this study, intradermal injections of Compound I at 0.004%, TGF-β3 at 100 ng/200 μl or vehicle were given right before closing the wounds. Afterward, TGF-β3 was injected two more times, on day 1 and 2, and Compound I and vehicle were topically applied twice a day for the duration of the study. The vehicle was PBS with 0.1% BSA and 4 mM HCl in a total volume of 200 μl for injection. Skin wounds were imaged on day 3, 7, 14, 35 and 70.
# as §4
# [5] = tested on: cultured human skin fibroblasts; test: TGF-β1-induced myofibroblast formation (α-SMA Western blot); type: cell-based; conditions: 10 or 100 nM with TGF-β1 2 ng/ml, 72 hours
# Protocol: EP4 and EP2 Receptor Agonists Inhibit TGF-β1-Induced Myofibroblasts Formation
# Adult skin fibroblasts were derived from normal skin of a person, purchased from ATCC(CRL-7346). Cells were cultured in DMEM medium supplemented with 10% fetal bovine serum and 1% streptomycin and penicillin in incubators at 37° C. and 5% CO2. Cells were seeded in 10 cm dishes at 1×10^6 cells/dish. When the cells became 80% confluent, they were cultured in serum-free medium for 48 hrs after washing away residual serum with PBS. Vehicle, Compound I (EP4 receptor agonist), or Compound II (EP2 receptor agonist), together with human recombinant TGF-β1 (2 ng/ml), were added to culture medium at 0, 10 or 100 nM final concentration, respectively. Compound I or 2 was first dissolved in DMSO, the final DMSO concentration was 0.1%. Cell lysates were collected at 72 hours after treatments, respectively. Proteins were quantified and resolved on 4-10% SDS-PAGE. Then the proteins were transferred to membrane by electrophoresis. The membranes were blocked with mouse-anti-alpha smooth muscle actin (α-SMA) antibody, and a second antibody against mouse-IgG conjugated with AP (purchased from Signal Transduction). Shown in FIG. 1A is a representative image of Western Blot myofibroblast marker expression under the treatment of EP4 or EP2 receptor agonists in combination with TGF-β1 in cultured human skin fibroblasts.
# [6] = tested on: VEGF; test: VEGF expression at wound sites (Western blot); type: in vivo, Sprague Dawley rats; conditions: wound tissue, transiently at day-7
# Protocol: as §5
# [7] = target: T2, hEP4/Gqs (Homo sapiens, UniProt P35408); test: FLIPR Ca2+ signal assay, hEP4/Gqs; type: cell-based
# T2 construct: expressed in transfected cells
# Protocol: as §1, §2, §3
# [8] = target: T3, human recombinant EP4 receptor (Homo sapiens, UniProt P35408); test: Radioligand binding assay ([3H]PGE2 competition), EP4 receptor
# T3 construct: expressed in transfected cells
# Protocol: (§6) General Protocol for Radioligand Binding Assays and cAMP assays:
# (§7) Radioligand binding studies on plasma membrane fractions prepared from cells** are performed as follows. Cells washed with TME buffer are scraped from the bottom of the flasks and homogenized for 30 sec using a Brinkman PT 10/35 polytron. TME buffer is added as necessary to achieve a 40 ml volume in the centrifuge tubes. TME is comprised of 50 mM TRIS base, 10 mM MgCl2, 1 mM EDTA; pH 7.4 is achieved by adding 1 N HCl. The cell homogenate is centrifuged at 19,000 rpm for 20-25 min at 4° C. using a Beckman Ti-60 or Tt-70 rotor. The pellet is then re-suspended in TME buffer to provide a final protein concentration of 1 mg/ml, as determined by Bio-Rad assay. Radioligand binding assays are performed in a 100 μl or 200 μl volume.
# (§8) The binding of [^3H] PGE2 (specific activity 165 Ci/mmol) is determined in duplicate and in at least 3 separate experiments. […] PGE2 and non-specific binding is determined with 10^−5 M unlabelled PGE2. […]
# as §3
# [9] = target: T4, human recombinant EP2 receptor (HEK-293 cells) (Homo sapiens, UniProt P43116); test: AlphaScreen cAMP assay, EP2 receptor; type: cell-based; conditions: read-out: cAMP enhancement EC50
# T4 construct: expressed in transfected cells
# Protocol: as §1, §2, §3
# [10] = target: T5, hEP2 (Homo sapiens, UniProt P43116); test: FLIPR Ca2+ signal assay, hEP2 co-expressed with Gqs; type: cell-based; conditions: EP2 receptor
# T5 construct: expressed in transfected cells
# Protocol: as §1, §2, §3
# [11] = target: T5, hEP2; test: Radioligand binding assay ([3H]PGE2 competition), EP2 receptor
# Protocol: as §6, §7, §8, §3
# [12] = 14 days post-surgery, Masson Trichrome
# T5 sequence (P43116 whole entry): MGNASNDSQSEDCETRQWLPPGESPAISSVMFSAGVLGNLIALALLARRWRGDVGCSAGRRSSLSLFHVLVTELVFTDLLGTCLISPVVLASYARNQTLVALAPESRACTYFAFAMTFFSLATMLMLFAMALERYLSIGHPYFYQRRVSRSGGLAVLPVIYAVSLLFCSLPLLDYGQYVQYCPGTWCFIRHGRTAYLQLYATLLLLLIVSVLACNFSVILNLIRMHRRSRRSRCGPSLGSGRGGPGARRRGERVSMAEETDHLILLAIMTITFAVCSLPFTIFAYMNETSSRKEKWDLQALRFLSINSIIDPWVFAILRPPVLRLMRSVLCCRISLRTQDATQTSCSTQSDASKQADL
# T1 sequence (P35408 whole entry): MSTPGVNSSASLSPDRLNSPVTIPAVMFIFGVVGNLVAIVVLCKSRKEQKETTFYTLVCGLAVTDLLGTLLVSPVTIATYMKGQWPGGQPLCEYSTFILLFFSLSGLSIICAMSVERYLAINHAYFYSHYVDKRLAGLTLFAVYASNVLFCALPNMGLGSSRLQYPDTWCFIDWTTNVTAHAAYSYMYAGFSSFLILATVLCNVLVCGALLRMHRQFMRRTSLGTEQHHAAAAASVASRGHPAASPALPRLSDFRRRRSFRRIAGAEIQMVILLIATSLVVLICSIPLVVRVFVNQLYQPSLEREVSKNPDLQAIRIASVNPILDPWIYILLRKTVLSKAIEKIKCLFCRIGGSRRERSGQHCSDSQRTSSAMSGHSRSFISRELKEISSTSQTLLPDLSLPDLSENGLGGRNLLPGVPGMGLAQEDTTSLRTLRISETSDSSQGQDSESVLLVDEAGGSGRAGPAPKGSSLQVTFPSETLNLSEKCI
# T2 sequence (P35408 whole entry): as above
# T3 sequence (P35408 whole entry): as above
# T4 sequence (P43116 whole entry): as the sequence (P43116 whole entry) above
compound,measurement,setting,value
CC1(C)C(=O)[C@H](C/C=C\CCCC(=O)O)[C@@H](/C=C/[C@H](O)CCc2sc3ccccc3c2Cl)[C@@H]1O [Compound I],EC50,[1],0.25 ± 0.03 nM
same,epidermal thickness of vehicle-treated skin relative to Compound I treated epidermis,[2]; 7 days post-skin incision,3 times
same,thickness of epidermal layer of treated skin,[2]; 7 days post-skin incision,close to the nearby normal epidermis
same,gross skin scar appearance versus vehicle-treated animals,[2]; 14 days post-surgery,smaller and softer skin scar
same,scar width at the superficial region,[2]; [12],only a tendency to decrease
same,scar width in the middle and bottom parts of scars,[2]; [12],significantly reduced
same,"overall size of epidermal defects, vehicle-treated wounds compared with Compound I treated wounds",[2]; day 3,two times larger
same,skin wound samples with closed epidermis filled with keratinocytes,"[2]; day 3, 0.004% topical twice daily",80%
same,number of myofibroblasts (α-SMA-positive cells),"[2]; day 3 samples, vehicle control 38±6.15",25.8±7.45 /3 sections
same,polymorphonuclear cell infiltration at wound sites,[2]; days 2 and 3,significantly reduced
same,enhancement of bFGF expression,[3],up to 60%
same,number of neutrophils counted in three sections,[4],31.4±8
same,macroscopic surface appearance of wound sites,[4],wound sites were not even detectable
same,"abnormal regions of dense, red, fine parallel fibers in wound gaps",[4],largely absent
same,widths of the abnormal structured dermis regions versus vehicle,[4]; p<0.01-0.05,significantly smaller
same,gap width in-between the normal fibrils versus vehicle,[4],significantly narrower
same,collagen fibrils at wound sites under polarized light,[4],large yellow-stained collagen bundles almost crossing over the entire wound sites
same,size of residual scar regions versus vehicle,"[4]; day 70, Masson trichrome",remarkably smaller
same,effect on residual scar size compared with TGF-β3,"[4]; day 70, Masson trichrome, p<0.01-0.05",more noticeable than TGF-β3
same,TGF-β1-up-regulated expression of α-SMA,[5],dramatically ameliorated
same,boost of VEGF expression,[6],25%
same,EC50,[7],0.11 ± 0.05 nM
same,Ki,[8],6.7 ± 0.7 nM
"TGF-β3: a leading treatment for wounds, reportedly reducing skin scar in both animals and human; comparator",number of neutrophils counted in three sections,[4],53.8±17
same,macroscopic surface appearance of wound sites,[4],still showed traces of wounds
same,"abnormal regions of dense, red, fine parallel fibers in wound gaps",[4],largely absent
same,widths of the abnormal structured dermis regions versus vehicle,[4]; p<0.01-0.05,significantly smaller
same,gap width in-between the normal fibrils versus vehicle,[4],significantly narrower
same,collagen fibrils at wound sites under polarized light,[4],some green fibers at the bottom of the wounds
same,size of residual scar regions versus vehicle,"[4]; day 70, Masson trichrome",remarkably smaller
CCCCC[C@H](O)c1ccc(N2C(=O)CC[C@@H]2CCCc2ccc(C(=O)O)s2)cc1 [Compound II],EC50,[9],0.19 nM
same,EC50,[10],6.7 nM
same,TGF-β1-up-regulated expression of α-SMA,[5],dramatically ameliorated
same,Ki,[11],21 nM

# — patent publication US20120259413A1, “DEVICES, COMPOSITIONS AND METHODS UTILIZING EP4 AND EP2 RECEPTOR AGONISTS FOR PREVENTING, REDUCING OR TREATING CAPSULAR CONTRACTURE” (ALLERGAN, INC., priority 2011, published 2012)
